Molecules are shown by their SMILES.

The assay has as its system HT-29 human adenocarcinoma cells. Description: Apoptosis induction in Human Adenocarcinoma cells (HT-29). The class given is cell-based. The conditions noted are these: HT-29 cells, FIG. 18 and FIG. 19.

Turning to `CC/C=C\C/C=C\C/C=C\C/C=C\C/C=C\C/C=C\CCC(=O)Oc1ccccc1C(=O)O` [DHASPIR, 2-((4Z,7Z,10Z,13Z,16Z,19Z)-docosa-4,7,10,13,16,19-hexaenoyloxy)benzoic acid], the pro-apoptotic effect entry is given as “same pro-apoptotic effect as the DHA/acetyl salicylate combination”.
